Measured values taken from ChEMBL document CHEMBL1201862, “PubChem BioAssay data set” (2004).
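Following 48 hours of exposure in 96-well plates, responses at five concentrations were used to interpolate endpoints linearly. At the GI50, growth is halved.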 The source made the active and inactive calls. Rule as the data show it: active = GI50 up to about 1.1 µM and inactive = higher.

Columns and labels:
Experiment in all cases: NCI-60 cell line screen, 48 h
786-0 = tested on: 786-0
A498 = tested on: A498
A549 = tested on: A549
ACHN = tested on: ACHN
BT-549 = tested on: BT-549
CAKI-1 = tested on: CAKI-1
COLO 205 = tested on: COLO 205
DU-145 = tested on: DU-145
EKVX = tested on: EKVX
HCC 2998 = tested on: HCC 2998
HCT-116 = tested on: HCT-116
HCT-15 = tested on: HCT-15
HOP-62 = tested on: HOP-62
HT-29 = tested on: HT-29
K562 = tested on: K562
KM12 = tested on: KM12
LOX IMVI = tested on: LOX IMVI
M14 = tested on: M14
MCF7 = tested on: MCF7
MDA-MB-231 = tested on: MDA-MB-231
MDA-MB-435 = tested on: MDA-MB-435
MOLT-4 = tested on: MOLT-4
NCI-H226 = tested on: NCI-H226
NCI-H23 = tested on: NCI-H23
NCI-H460 = tested on: NCI-H460
NCI/ADR-RES = tested on: NCI/ADR-RES
OVCAR-3 = tested on: OVCAR-3
OVCAR-4 = tested on: OVCAR-4
OVCAR-5 = tested on: OVCAR-5
OVCAR-8 = tested on: OVCAR-8
PC-3 = tested on: PC-3
RPMI-8226 = tested on: RPMI-8226
RXF 393 = tested on: RXF 393
SF-268 = tested on: SF-268
SF-295 = tested on: SF-295
SF-539 = tested on: SF-539
SK-MEL-28 = tested on: SK-MEL-28
SK-MEL-2 = tested on: SK-MEL-2
SK-MEL-5 = tested on: SK-MEL-5
SK-OV-3 = tested on: SK-OV-3
SNB-19 = tested on: SNB-19
SNB-75 = tested on: SNB-75
SR = tested on: SR
SW-620 = tested on: SW-620
T47D = tested on: T47D
TK-10 = tested on: TK-10
U-251 = tested on: U-251
UACC-257 = tested on: UACC-257
UACC-62 = tested on: UACC-62
UO-31 = tested on: UO-31
CCRF-CEM = tested on: CCRF-CEM
HL-60 = tested on: HL-60
IGROV-1 = tested on: IGROV-1
MDA-N = tested on: MDA-N
Malme-3M = tested on: Malme-3M
SN12C = tested on: SN12C

SMILES: CC(C)OC(=O)[C@@H](O)[C@H](CO)C1=CC([Si](C)(C)c2ccccc2)=CON1
- GI50 (786-0): > 100 µM (inactive)
- GI50 (A498): > 100 µM (inactive)
- GI50 (A549): > 100 µM (inactive)
- GI50 (ACHN): > 100 µM (inactive)
- GI50 (BT-549): > 100 µM (inactive)
- GI50 (CAKI-1): > 100 µM (inactive)
- GI50 (COLO 205): > 100 µM (inactive)
- GI50 (DU-145): > 100 µM (inactive)
- GI50 (EKVX): > 100 µM (inactive)
- GI50 (HCC 2998): > 100 µM (inactive)
- GI50 (HCT-116): > 100 µM (inactive)
- GI50 (HCT-15): > 100 µM
- GI50 (HOP-62): > 100 µM (inactive)
- GI50 (HT-29): > 100 µM (inactive)
- GI50 (K562): > 100 µM (inactive)
- GI50 (KM12): > 100 µM (inactive)
- GI50 (LOX IMVI): > 100 µM (inactive)
- GI50 (M14): > 100 µM (inactive)
- GI50 (MCF7): > 100 µM (inactive)
- GI50 (MDA-MB-231): > 100 µM (inactive)
- GI50 (MDA-MB-435): > 100 µM (inactive)
- GI50 (MOLT-4): > 100 µM (inactive)
- GI50 (NCI-H226): > 100 µM (inactive)
- GI50 (NCI-H23): > 100 µM (inactive)
- GI50 (NCI-H460): > 100 µM (inactive)
- GI50 (NCI/ADR-RES): > 100 µM (inactive)
- GI50 (OVCAR-3): > 100 µM (inactive)
- GI50 (OVCAR-4): > 100 µM (inactive)
- GI50 (OVCAR-5): > 100 µM (inactive)
- GI50 (OVCAR-8): > 100 µM (inactive)
- GI50 (PC-3): > 100 µM (inactive)
- GI50 (RPMI-8226): > 100 µM (inactive)
- GI50 (RXF 393): > 100 µM (inactive)
- GI50 (SF-268): > 100 µM (inactive)
- GI50 (SF-295): > 100 µM (inactive)
- GI50 (SF-539): > 100 µM (inactive)
- GI50 (SK-MEL-28): > 100 µM (inactive)
- GI50 (SK-MEL-2): > 100 µM (inactive)
- GI50 (SK-MEL-5): > 100 µM (inactive)
- GI50 (SK-OV-3): > 100 µM (inactive)
- GI50 (SNB-19): > 100 µM (inactive)
- GI50 (SNB-75): 1.26 µM (inactive)
- GI50 (SR): > 100 µM (inactive)
- GI50 (SW-620): > 100 µM (inactive)
- GI50 (T47D): > 100 µM (inactive)
- GI50 (TK-10): > 100 µM (inactive)
- GI50 (U-251): > 100 µM (inactive)
- GI50 (UACC-257): > 100 µM (inactive)
- GI50 (UACC-62): > 100 µM (inactive)
- GI50 (UO-31): > 100 µM (inactive)

SMILES: C=Cc1nc2nnc(CCCCCCCCc3nnc4nc(C=C)[nH]n34)n2[nH]1
- GI50 (786-0): 80.9 µM (inactive)
- GI50 (A498): 40.7 µM (inactive)
- GI50 (A549): 51.8 µM (inactive)
- GI50 (ACHN): > 100 µM (inactive)
- GI50 (BT-549): > 100 µM (inactive)
- GI50 (CAKI-1): > 100 µM (inactive)
- GI50 (CCRF-CEM): > 100 µM (inactive)
- GI50 (COLO 205): > 100 µM (inactive)
- GI50 (DU-145): > 100 µM (inactive)
- GI50 (EKVX): 61.5 µM (inactive)
- GI50 (HCC 2998): 75.3 µM (inactive)
- GI50 (HCT-116): 47.2 µM (inactive)
- GI50 (HCT-15): > 100 µM
- GI50 (HL-60): 34 µM (inactive)
- GI50 (HOP-62): > 100 µM (inactive)
- GI50 (HT-29): > 100 µM (inactive)
- GI50 (IGROV-1): > 100 µM (inactive)
- GI50 (K562): 21.6 µM (inactive)
- GI50 (KM12): > 100 µM (inactive)
- GI50 (LOX IMVI): 93.5 µM (inactive)
- GI50 (M14): > 100 µM (inactive)
- GI50 (MCF7): 80.7 µM (inactive)
- GI50 (MDA-MB-231): 95.5 µM (inactive)
- GI50 (MDA-MB-435): > 100 µM (inactive)
- GI50 (MDA-N): > 100 µM (inactive)
- GI50 (MOLT-4): 47.4 µM (inactive)
- GI50 (Malme-3M): 58.7 µM (inactive)
- GI50 (NCI-H226): > 100 µM (inactive)
- GI50 (NCI-H23): 67.8 µM (inactive)
- GI50 (NCI-H460): 57.8 µM (inactive)
- GI50 (NCI/ADR-RES): 63.1 µM (inactive)
- GI50 (OVCAR-3): > 100 µM (inactive)
- GI50 (OVCAR-4): 83.9 µM (inactive)
- GI50 (OVCAR-5): > 100 µM (inactive)
- GI50 (OVCAR-8): 83.8 µM (inactive)
- GI50 (PC-3): > 100 µM (inactive)
- GI50 (RXF 393): > 100 µM (inactive)
- GI50 (SF-268): > 100 µM (inactive)
- GI50 (SF-295): 62.5 µM (inactive)
- GI50 (SF-539): > 100 µM (inactive)
- GI50 (SK-MEL-28): > 100 µM (inactive)
- GI50 (SK-MEL-2): > 100 µM (inactive)
- GI50 (SK-MEL-5): 41.6 µM (inactive)
- GI50 (SK-OV-3): > 100 µM (inactive)
- GI50 (SN12C): > 100 µM (inactive)
- GI50 (SNB-19): > 100 µM (inactive)
- GI50 (SNB-75): > 100 µM (inactive)
- GI50 (SW-620): > 100 µM (inactive)
- GI50 (TK-10): > 100 µM (inactive)
- GI50 (U-251): 30.7 µM (inactive)
- GI50 (UACC-257): 31.4 µM (inactive)
- GI50 (UO-31): > 100 µM (inactive)

SMILES: O=C(c1ccc(Cl)cc1Cl)N1CCN(C(=O)c2ccc(Cl)cc2Cl)C1=S
- GI50 (RPMI-8226): 12.9 µM (inactive)
